# From US20170334899A1, “AMINO-SUBSTITUTED ISOTHIAZOLES” (Bayer Pharma Aktiengesellschaft, priority 2014, published 2017)
# System: HeLa
# Assay: Proliferation assay (crystal violet), HeLa
# Format: cell-based
# Conditions: Homo sapiens, HeLa, 96 h, HeLa cells; 4 days incubation; crystal violet staining; read-out: IC50 inhibition of proliferation, HeLa
# Method in brief: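 Four-day compound exposure (0.001-10 μM, 0.5% DMSO final) began 24 h after seeding 1000-5000 cells/well in medium with 10% fetal calf serum. Cell number read by crystal violet absorbance at 595 nm, scaled between day-zero plate and untreated control; 4-parameter fit gave IC50.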
row,IC50 [µM],Compound
1,> 10,"Cc1nsc(Nc2cnc3ccccc3n2)c1C(=O)Nc1ccc(Oc2ccc(SC(F)(F)F)cc2)nc1 [Example 233, 3-methyl-5-(quinoxalin-2-ylamino)-N-(6-{4-[(trifluoromethyl)sulfanyl]phenoxy}pyridin-3-yl)-1,2-thiazole-4-carboxamide]"
2,0.98,"Cc1nsc(Nc2cnc3ccccc3n2)c1C(=O)Nc1ccc(C(=O)OC(C)(C)C)cc1 [Example 181, tert-butyl 4-({[3-methyl-5-(quinoxalin-2-ylamino)-1,2-thiazol-4-yl]carbonyl}amino)benzoate]"
3,9.9,"CNS(=O)(=O)c1ccc(NC(=O)c2c(C)nsc2Nc2cncc(C(F)(F)F)n2)cc1 [Example 211, 3-methyl-N-[4-(methylsulfamoyl)phenyl]-5-{[6-(trifluoromethyl)pyrazin-2-yl]amino}-1,2-thiazole-4-carboxamide]"
